Data as given in patent publication US11629133B2, “Perfluoroaminoolefins and methods of making and using the same” (3M INNOVATIVE PROPERTIES COMPANY, priority 2018, dated 2023).

Assays:
Format in all cases: physicochemical
[1] = Pour point, determined visually; conditions: lowest temperature at which sample flows within 5 sec held horizontally
Method: […] of the sample was placed in a vial and cooled in a liquid nitrogen-cooled pentane bath until it solidified. The sample was then allowed to warm slowly in the pentane bath by removal of the liquid nitrogen cooling source (typically an increase of 1-2° C./minute) and observed every 3-5° C.

[2] = Thermal stability of PE-1 with absorbents, purity by GC-FID
Method: GC-FID analysis was carried out on an Agilent Technologies 7890B GC System (Santa Clara Calif.) equipped with a Restek RtX-200 gas chromatography column (Bellefonte, Pa.) and helium carrier gas. Once material was injected into the column, the following temperature sequence was executed: 5 min hold at 40° C., 10° C./minute temperature increase over the span of 21 min to reach a final temperature of 250° C., and then a 15 min hold at 250° C. Data analysis by use of Agilent Open LAB CDSA ChemStation software enabled the determination of product purities and GC yields.
Thermal stability was measured by charging 1.0 g of PE-1 into glass vials and then adding a weighed amount of absorbent. The samples were stirred for 24 hours at 60° C., allowed to cool, and then analyzed by GC-FID for decomposition and purity changes.

[3] = Dielectric constant per ASTM D150-11; conditions: measured at 1 kHz
Method: The dielectric constant (tested per ASTM D150-11) of PE-1 was measured. The dielectric constant measured at 1 kHz was 1.98.

FC1=C(N2C(F)(F)C(F)(F)C(F)(F)C2(F)F)C(F)(F)C(F)(F)C1(F)F [PE-2, 2,2,3,3,4,4,5,5-octafluoro-1-(perfluorocyclopent-1-en-1-yl)pyrrolidine]
Pour point [1]: −33 °C

2,2,3,3,4,4,5,5-octafluoro-1-(perfluoropent-2-en-3-yl)pyrrolidine and 2,2,3,3,4,4,5,5-octafluoro-1-(perfluoropent-2-en-2-yl)pyrrolidine [PE-4]
Pour point [1]: −90 °C

FC1=C(N2C(F)(F)C(F)(F)C(F)(F)C2(F)F)C(F)(F)C(F)(F)C(F)(F)C1(F)F [PE-1, 2,2,3,3,4,4,5,5-octafluoro-1-(perfluorocyclohex-1-en-1-yl)pyrrolidine]
Purity, % ([2]; 4 Angstrom Molecular Sieves, stirred 24 hours at 60° C.): 97.3%
Purity, % ([2]; Activated Carbon, stirred 24 hours at 60° C.): 97.7%
Purity, % ([2]; Basic Alumina, stirred 24 hours at 60° C.): 97.6%
Purity, % ([2]; K2CO3, stirred 24 hours at 60° C.): 97.6%
Purity, % ([2]; No Absorbent, stirred 24 hours at 60° C.): 97.7%
Purity, % ([2]; Silica Gel, stirred 24 hours at 60° C.): 97.7%
dielectric constant [3]: 1.98
Pour point [1]: −34 °C

FC1=C(N2C(F)(F)C(F)(F)OC(F)(F)C2(F)F)C(F)(F)C(F)(F)C1(F)F [PE-3, 2,2,3,3,5,5,6,6-octafluoro-4-(perfluorocyclopent-1-en-1-yl)morpholine]
Pour point [1]: −49 °C
